Laboratory results as given in article PMC5564600 (Oncotarget, 2017).
Read-outs that look alike come from different tables or passages of the source.

Assays:
Test in all cases: biochemical
Type in all cases: binding
panel of 442 kinases [1] = biological target: T1, panel of 442 kinases (Homo sapiens, UniProt O14936); conditions: CASK; for remaining activity at 1 µM: read-out: % of control at 1 µM
T1 construct: purchased Ambit Biosciences (scanMAXX KINOMEscan)
T1 sequence (O14936 1-926): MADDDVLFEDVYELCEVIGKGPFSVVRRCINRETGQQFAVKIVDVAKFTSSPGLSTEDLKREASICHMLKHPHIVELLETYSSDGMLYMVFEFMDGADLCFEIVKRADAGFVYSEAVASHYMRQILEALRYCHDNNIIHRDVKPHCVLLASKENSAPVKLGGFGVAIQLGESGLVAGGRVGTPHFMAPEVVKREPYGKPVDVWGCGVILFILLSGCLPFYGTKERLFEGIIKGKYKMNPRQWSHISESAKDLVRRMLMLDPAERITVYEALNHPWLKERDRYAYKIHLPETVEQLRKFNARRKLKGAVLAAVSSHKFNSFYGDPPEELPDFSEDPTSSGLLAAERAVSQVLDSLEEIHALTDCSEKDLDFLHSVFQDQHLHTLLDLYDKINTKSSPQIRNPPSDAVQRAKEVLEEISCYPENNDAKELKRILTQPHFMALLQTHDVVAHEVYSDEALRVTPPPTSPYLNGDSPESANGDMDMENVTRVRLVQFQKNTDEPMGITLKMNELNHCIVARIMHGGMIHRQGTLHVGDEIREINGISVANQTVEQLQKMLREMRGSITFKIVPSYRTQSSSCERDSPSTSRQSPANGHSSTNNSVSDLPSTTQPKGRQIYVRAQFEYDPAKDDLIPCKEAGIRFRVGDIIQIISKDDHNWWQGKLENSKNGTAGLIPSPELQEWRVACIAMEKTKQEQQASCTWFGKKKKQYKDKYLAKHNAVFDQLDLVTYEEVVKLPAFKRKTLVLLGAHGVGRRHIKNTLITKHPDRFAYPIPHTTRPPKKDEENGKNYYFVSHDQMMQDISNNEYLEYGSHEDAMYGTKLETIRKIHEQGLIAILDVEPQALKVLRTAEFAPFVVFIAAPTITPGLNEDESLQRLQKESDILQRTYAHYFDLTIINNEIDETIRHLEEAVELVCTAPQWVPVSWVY

panel of 442 kinases [2] = biological target: T2, panel of 442 kinases (Homo sapiens, UniProt P11802); conditions: for remaining activity at 1 µM: read-out: % of control at 1 µM; for remaining activity at 10 µM: read-out: % of control at 10 µM
T2 construct: purchased Ambit Biosciences (scanMAXX KINOMEscan)

panel of 442 kinases [3] = biological target: T3, panel of 442 kinases (Homo sapiens, UniProt Q16288); conditions: kinase TRKC; for remaining activity at 1 µM: read-out: TRKC (% of control at 1 µM)
T3 construct: purchased Ambit Biosciences (scanMAXX KINOMEscan)

panel of 442 kinases [4] = biological target: T4, panel of 442 kinases (Homo sapiens, UniProt Q99759); conditions: kinase MAP3K3; for remaining activity at 1 µM: read-out: % of control at 1 µM
T4 construct: purchased Ambit Biosciences (scanMAXX KINOMEscan)
T4 sequence (Q99759 1-626): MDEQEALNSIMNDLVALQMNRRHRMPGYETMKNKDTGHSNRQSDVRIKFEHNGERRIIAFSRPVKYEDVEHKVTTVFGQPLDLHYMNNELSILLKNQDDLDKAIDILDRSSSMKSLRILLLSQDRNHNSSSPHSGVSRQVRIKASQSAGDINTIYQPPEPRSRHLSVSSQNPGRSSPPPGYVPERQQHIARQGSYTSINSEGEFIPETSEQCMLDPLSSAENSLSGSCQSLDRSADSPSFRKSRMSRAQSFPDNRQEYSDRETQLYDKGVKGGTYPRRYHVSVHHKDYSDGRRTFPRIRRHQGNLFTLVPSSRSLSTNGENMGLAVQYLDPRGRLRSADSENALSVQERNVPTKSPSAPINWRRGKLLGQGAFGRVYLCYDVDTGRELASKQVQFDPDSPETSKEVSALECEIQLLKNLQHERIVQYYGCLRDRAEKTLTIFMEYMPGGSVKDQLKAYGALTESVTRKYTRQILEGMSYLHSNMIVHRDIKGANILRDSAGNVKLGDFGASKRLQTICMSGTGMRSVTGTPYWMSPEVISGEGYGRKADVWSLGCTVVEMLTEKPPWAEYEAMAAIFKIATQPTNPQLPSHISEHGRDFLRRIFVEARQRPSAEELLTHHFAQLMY

panel of 442 kinases [5] = biological target: T5, panel of 442 kinases (Homo sapiens, UniProt Q9UEE5); conditions: DRAK1; for remaining activity at 1 µM: read-out: % of control at 1 µM
T5 construct: purchased Ambit Biosciences (scanMAXX KINOMEscan)
T5 sequence (Q9UEE5 1-414): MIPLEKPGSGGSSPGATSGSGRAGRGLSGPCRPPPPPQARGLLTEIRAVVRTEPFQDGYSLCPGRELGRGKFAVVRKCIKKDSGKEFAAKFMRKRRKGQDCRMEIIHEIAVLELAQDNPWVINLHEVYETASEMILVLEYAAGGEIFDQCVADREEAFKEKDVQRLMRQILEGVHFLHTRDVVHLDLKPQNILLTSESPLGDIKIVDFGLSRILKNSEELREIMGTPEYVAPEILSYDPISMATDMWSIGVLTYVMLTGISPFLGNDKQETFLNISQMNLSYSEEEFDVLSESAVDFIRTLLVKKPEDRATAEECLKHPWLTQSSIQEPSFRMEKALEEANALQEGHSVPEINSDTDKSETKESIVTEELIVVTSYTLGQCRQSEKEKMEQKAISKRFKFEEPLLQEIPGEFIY

[6] = 10 µM, read-out: % of control at 10 µM

T3 sequence (Q16288 32-839): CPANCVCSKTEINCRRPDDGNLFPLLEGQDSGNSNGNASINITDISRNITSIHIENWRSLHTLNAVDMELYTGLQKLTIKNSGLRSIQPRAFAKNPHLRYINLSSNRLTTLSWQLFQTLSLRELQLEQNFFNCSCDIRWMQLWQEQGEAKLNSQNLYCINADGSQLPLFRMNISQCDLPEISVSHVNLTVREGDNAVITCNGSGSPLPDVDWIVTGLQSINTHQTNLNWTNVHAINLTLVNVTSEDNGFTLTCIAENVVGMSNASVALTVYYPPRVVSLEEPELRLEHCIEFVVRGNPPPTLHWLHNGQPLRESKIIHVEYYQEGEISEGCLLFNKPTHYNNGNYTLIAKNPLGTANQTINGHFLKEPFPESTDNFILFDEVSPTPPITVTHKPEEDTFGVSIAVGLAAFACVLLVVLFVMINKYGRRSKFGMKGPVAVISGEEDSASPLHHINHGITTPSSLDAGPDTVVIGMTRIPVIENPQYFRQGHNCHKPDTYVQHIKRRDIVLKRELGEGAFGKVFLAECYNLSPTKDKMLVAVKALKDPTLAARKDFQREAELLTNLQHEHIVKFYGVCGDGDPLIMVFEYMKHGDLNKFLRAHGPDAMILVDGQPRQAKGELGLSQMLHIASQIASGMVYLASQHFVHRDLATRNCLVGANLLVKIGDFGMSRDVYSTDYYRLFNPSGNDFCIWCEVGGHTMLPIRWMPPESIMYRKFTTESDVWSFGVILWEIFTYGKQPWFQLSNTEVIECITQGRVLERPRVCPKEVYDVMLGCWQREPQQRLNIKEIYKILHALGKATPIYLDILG
T2 sequence (P11802 whole entry): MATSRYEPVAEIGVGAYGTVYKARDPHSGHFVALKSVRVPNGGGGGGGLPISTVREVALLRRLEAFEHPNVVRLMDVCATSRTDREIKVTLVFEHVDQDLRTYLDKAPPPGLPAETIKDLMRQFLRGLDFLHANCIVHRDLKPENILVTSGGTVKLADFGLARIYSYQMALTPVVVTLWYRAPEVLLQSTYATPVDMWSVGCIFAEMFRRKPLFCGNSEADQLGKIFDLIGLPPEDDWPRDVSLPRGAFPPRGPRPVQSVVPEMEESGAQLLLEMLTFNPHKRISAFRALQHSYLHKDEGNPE

SMILES	remaining activity at 1 µM (panel of 442 kinases [1]) [%]	remaining activity at 10 µM (panel of 442 kinases [1]; [6]) [%]	remaining activity at 1 µM (panel of 442 kinases [2]; CDK4-cyclinD1) [%]	remaining activity at 10 µM (panel of 442 kinases [2]; CDK4-cyclinD1) [%]	remaining activity at 1 µM (panel of 442 kinases [2]; CDK4-cyclinD3) [%]	remaining activity at 10 µM (panel of 442 kinases [2]; CDK4-cyclinD3) [%]	remaining activity at 1 µM (panel of 442 kinases [3]) [%]	remaining activity at 10 µM (panel of 442 kinases [3]; 10 µM, read-out: TRKC (% of control at 10 µM)) [%]	remaining activity at 1 µM (panel of 442 kinases [4]) [%]	remaining activity at 10 µM (panel of 442 kinases [4]; [6]) [%]	remaining activity at 1 µM (panel of 442 kinases [5]) [%]	remaining activity at 10 µM (panel of 442 kinases [5]; [6]) [%]
Nc1cc(C(F)(F)F)c(-c2cc(N3CCOCC3)nc(N3CCOCC3)n2)cn1 [Buparlisib]	99	100	82	100	91	100	76	76	98	100	100	100
Cn1c(=O)n(-c2ccc(C(C)(C)C#N)cc2)c2c3cc(-c4cnc5ccccc5c4)ccc3ncc21 [Dactolisib, 2-methyl-2-[4-(3-methyl-2-oxo-8-quinolin-3-yl-2,3-dihydroimidazo[4,5-c]quinolin-1-yl)-phenyl] propionitrile]	100	–	100	–	97	–	85	–	81	–	91	–
COc1ncc(-c2ccc3nccc(-c4ccnnc4)c3c2)cc1NS(=O)(=O)c1ccc(F)cc1F [Omipalisib]	75	–	100	–	100	–	100	–	100	–	100	–
FC(F)c1nc2ccccc2n1-c1nc(N2CCOCC2)nc(N2CCOCC2)n1 [ZSTK474, 2-(difluoromethyl)-1-[4,6-di(4-morpholinyl)-1,3,5-triazin-2-yl]-1H-benzimidazole]	87	–	90	–	100	–	100	–	74	–	90	–
